One data set concerns Wnt signal. The experiment in a line: Detection of Wnt signal (TOPglow luciferase reporter, LiCl-stimulated). Particulars: Homo sapiens; HEK293 clone carrying pNeo-TOP reporter; LiCl stimulation; luciferase luminescence; read-out: Test Example 1 IC50 (concentration required for inhibiting the Wnt signal activity by 50%). The data set is classed as cell-based. An outline of the steps: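 Stable HEK293 clone carrying a TOPglow TCF/Wnt-responsive luciferase reporter, stimulated with 80 mM LiCl in the diluted sample medium alongside compound; luminescence read with Bright-Glo 6 h after addition. IC50 derived from activity scaled between LiCl-only wells (100%) and wells lacking both LiCl and sample (0%).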

Data set [1] can be described thus: Evaluation of solubility (Examples 25 and 26), visual judgment. In kind it is physicochemical. Particulars: aqueous buffer, thermodynamic from solid; Dulbecco's phosphate-buffered saline pH 7; about 10 mg sample, test solution added in 0.1 mL portions until dissolved. As to the method:
About 10 mg of a sample was weighed accurately and placed in a 10-mL polypropylene test tube, a test solution shown below was added thereto by portions (0.1 mL) until the sample was dissolved completely. When the test solution was added, the mixed solution was stirred intermittently in a range from about 30 seconds to 3 minutes using a Vortex mixer every time the test solution was added. The solubility (mM) of the sample was calculated from the added amount of the test solution required until the presence of any solid material was not observed by visual judgment.
Test solution: GIBCO (registered trade name) (Dulbecco's phosphate-buffered saline having a pH value of 7, Invitrogen Corporation)

The nature of data set [2]: Evaluation of metabolic stability. The data set is classed as in vitro ADME, human. The note with it: 0.2 mg/mL HLM, 0.1 μM test substance, 15 minutes at 37° C., with vs without NADPH production. An outline of the steps:
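Pooled human liver microsomes (0.2 mg/mL) in 0.1 M potassium phosphate pH 7.4 with EDTA, MgCl2 and an NADPH-generating system (NADP+, glucose-6-phosphate, G6PDH). Residual ratio by LC-MS/MS, comparing with versus without NADPH generation.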

Data set [3] can be described thus: Evaluation of solubility (DMSO stock into PBS, HPLC-UV). The data set is classed as physicochemical. The note with it: aqueous buffer, kinetic from dmso stock; Dulbecco's phosphate-buffered saline pH 7, room temperature, about 15 minutes shaking; values greater than 200 μM regarded as 200 μM; read-out: Test Example 3 solubility. An outline of the steps:
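Kinetic solubility: 20 mM DMSO stock spiked into Dulbecco's PBS pH 7, shaken about 15 min at room temperature, then suction-filtered; filtrate quantified by HPLC-UV against a 200 μM DMSO standard. Values above 200 μM are capped at 200 μM.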

Data set [4] can be described thus: PAMPA test (parallel artificial membrane permeability assay). The note with it: phosphate buffer pH 6.8, about 200 μM, about 5 hours, room temperature, read-out: Test Example 4 membrane permeation coefficient Pe. The data set is classed as in vitro ADME. In outline:
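Compounds at about 200 μM in pH 6.8 phosphate buffer with about 1% DMSO on the donor side. Transport across a lipid-precoated PVDF membrane with shaking at 350 rpm, room temperature, about 5 h. Donor and acceptor concentrations measured by HPLC-UV; Pe (cm/s) calculated from these.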

The test system of data set [5] is human chronic myologenous leukemia cell strain K562. The experiment in a line: Anti-tumor effect in human K562 subcutaneous transplantation model. Particulars: day 28.

In brackets after ≈: the same amount, converted by molar mass.

With `C=CCN1CC(=O)N2[C@@H](Cc3ccc(OP(=O)(O)O)cc3F)C(=O)N(Cc3cccc(N4CC(N5CCN(CC)CC5)C4)n3)C[C@@H]2N1C(=O)NCc1ccccc1` [Example 25, 4-(((6S,9aS)-1-(Benzylcarbamoyl)-8-((6-(3-(4-ethylpiperazin-1-yl)azetidin-1-yl)pyridin-2-yl)methyl)-4,7-dioxo-2-(prop-2-en-1-yl)-octahydro-1H-pyrazino[2,1-c][1,2,4]triazin-6-yl)methyl)-3-fluorophenyl dihydrogen phosphate], in the data set on Wnt signal, the IC50 is 180 nM. Besides, in data set [1], the solubility is at least 124 mM.
As to `C=CCN1CC(=O)N2[C@@H](Cc3ccc(O)cc3F)C(=O)N(Cc3cccc(N4CC(N5CCN(CC)CC5)C4)n3)C[C@@H]2N1C(=O)NCc1ccccc1` [Example 1, (6S,9aS)-N-Benzyl-8-((6-(3-(4-ethylpiperazin-1-yl)azetidin-1-yl)pyridin-2-yl)methyl)-6-((2-fluoro-4-hydroxyphenyl)methyl)-4,7-dioxo-2-(prop-2-en-1-yl)-octahydro-1H-pyrazino[2,1-c][1,2,4]triazine-1-carboxamide], the IC50 in the data set with Wnt signal stood at 60 nM. Further, the “Test Example 2 residual ratio of the test substance” value in data set [2] amounted to 47%. For the same compound, the solubility in data set [3] was found to be 0.197 mM (≈ 143 µg/mL). For the same compound, the Papp in data set [4] was found to be 2.01 ×10⁻⁶ cm/s. Also, the “the number of individuals in which a tumor was not observed by visual judgment/total number of mice” value in data set [5] (Compound of Example 1 35 mg/kg oral bid for 5 days combined with Dasatinib 5 mg/kg qd, * P 0.05 or less vs Dasatinib alone (Fisher's test)) is listed as 6/10*; in data set [5] (Compound of Example 1 50 mg/kg oral bid for 5 days combined with Dasatinib 5 mg/kg qd, *** P 0.01 or less vs Dasatinib alone (Fisher's test)), 9/10***; in data set [5] (Compound of Example 1 75 mg/kg oral bid for 5 days combined with Dasatinib 5 mg/kg qd, *** P 0.01 or less vs Dasatinib alone (Fisher's test)), 10/10***.
For the compound `C=CCN1CC(=O)N2C(CN(Cc3cccc(N4CC(N5CCN(CC)CC5)C4)n3)C(=O)[C@@H]2Cc2ccc(OP(=O)(O)O)cc2)N1C(=O)NCc1ccccc1` (stereo partly drawn) [Example 26, 4-(((6S,9aS)-1-(Benzylcarbamoyl)-8-((6-(3-(4-ethylpiperazin-1-yl)azetidin-1-yl)pyridin-2-yl)methyl-4,7-dioxo-2-(prop-2-en-1-yl)-octahydro-1H-pyrazino[2,1-c][1,2,4]triazin-6-yl)methyl)phenyldihydrogen phosphate], the IC50 with Wnt signal was 1190 nM. The solubility in data set [1] was in the range of 42 to 62 mM.
